Measured values published in patent US7893094B2, “Amphiphilic pyridinium compounds, method of making and use thereof” (The Henry M. Jackson Foundation for the Advancement of …, priority 2003, dated 2011).
Read-outs that look alike come from different tables or passages of the source.

System: IL-8 secretion from CF IB-3 cells
Experiment: Suppression of spontaneously-elevated (constitutive) IL-8 secretion in IB-3 CF lung epithelial cells, IL-8 ELISA normalised to DNA
Type: cell-based
Conditions: for loss of potency: IL-8 secretion, relative to the most potent analogue, Compound 3
Procedure: The CF lung epithelial cells IB3 and S9 have been previously described [Zeitlin et al., 1991; Eidelman et al., 2001a)]. Both […] and S9 cells were grown in serum-free LHC-8 medium (Biofluids), formulated without gentimycin. CF tracheal epithelial cells (2CFTE29o-) were obtained from University of Vermont. The latter cells were grown in EMEM (Biofluids), supplemented with 10% fetal bovine serum (FBS) and 1% Penicillin G-Streptomycin.
Initial assays for dug effects in the screening paradigm were performed in duplicate at 10, 3, 1, and 0.3 μM concentrations on IB-3 cells grown in 96 well microtiter plates. Each individual plate contained IB-3 and IB-3/S9 cells to set the boundary conditions of the assay. CPX and DAX, 5 μM each, were included in separate wells as positive controls. “Hits” in the screen were chosen on the basis of at least a 50% reduction in constitutive IL-8 secretion. Following a positive retest, candidate compounds were taken off-line for more detailed analysis under the exact same assay conditions. […] In most circumstances we use a maximum final solvent concentration of 0.1% DMSO or 0.01% ETOH.
The details of this assay have been described in a previous publication (Eidehman et la., 2001 a). Briefly, IB-3 cells are grown in 96 well microtiter plates to 80% confluency. Drugs, diluted in LHC-8 medium at the given concentrations, are added, and the cells allowed to incubate for an additional 24 hours. To initiate the experiment, cells are washed with fresh LHC-8 medium, and then incubated for an additional 16 hours in the same medium supplemented with drug. At the end of the time period, the supernatant solutions are collected and assayed for IL-8 by and ELISA assay. Alternatively, the samples are immediately frozen at −80° C. […] The IL-8 ELISA assay was assembled from bulk materials purchased from R&D, and performed exactly according to the manufacturers specifications. To detect possible drug toxicity on cells, as well as normalize to total cells per well, we measure the double stranded DNA content of cells attached to the plate after removal of supernatant solutions for IL-8 assay. Cells remaining on the plate are then fixed with 10% formalin for 30 minutes at room temperature before being incubated with propidium iodide (kit from Boehringer Mannheim). Propidium iodide content in each well is then measured with an automated fluorescence plate reader (FLUOstar Optima, MBG Lab Technologies). Final IL-8 data are calculated as a ratio of secreted IL-8 to DNA for each well. On occasion, cell proliferation assays are also carried out using the XTT assay (Roche).

[1] = inhibition of IL-8 secretion from CF IB-3 cells, Table 3 prints no unit (b104 gives μM for Compound 3), read-out: IC50

Molecule | IC50 [1] | activity on IL-8 secretion/production, in words | also measured
8-(3-carboxyamido-pyridinium)-n-octylα-methyl-2-(4[2-methylpropyl]benzene)-acetate iodide [Compound 18] | 5.56 ± 0.98 µM | – | –
8-Pyridinium-n-octyl benzoate iodide [Compound 11] | > 30 µM | – | –
8-Pyridinium-n-octyl propionate iodide [Compound 7] | 12 ± 0.8 µM | – | loss of potency: 34 fold
C[C@H](OCc1ccccc1)C(=O)OCCCCCCCC[n+]1ccccc1 [Compound 10, S-8-Pyridinium-n-octyl α-benzyloxy-2-propionate iodide] | > 30 µM | – | –
CC(C(=O)OCCCCCCCC[n+]1ccccc1)c1ccc(NC(=O)OC(C)(C)C)cc1.[I-] (stereo not drawn) [Compound 16] | 4.6 ± 0.9 µM | retention of the activity | –
CC(C(=O)OCCCCCCCC[n+]1ccccc1)c1ccc(N)cc1.I.[I-] (stereo not drawn) [Compound 17, 8-Pyridinium-n-octyl α-methyl-2-[4-ammonium-phenyl]acetate iodide] | > 30 µM | eliminated activity | –
CC(C)Cc1ccc([C@H](C)C(=O)OCCCCCCCC[N+]2(C)CCOCC2)cc1.[Br-] [Compound 21, S-8-[N-Methylmorpholinium-n-octyl α-methyl-2-(4]2-methylpropyl]benzene)acetate bromide] | 24 ± 1 µM | – | –
R-8-Pyridinium-n-butyl α-methyl-2-phenylacetate iodide [Compound 1] | > 30 µM | – | –
R-8-Pyridinium-n-decyl α-methyl-2-phenylacetate iodide [Compound 4] | 2.52 ± 0.39 µM | – | –
R-8-Pyridinium-n-hexyl α-methyl-2-phenylacetate iodide [Compound 2] | > 30 µM | – | –
R-8-Pyridinium-n-octyl 2-hydroxy-3-phenylpropionate iodide [Compound 12] | > 30 µM | no activity was evident | –
R-8-Pyridinium-n-octyl α-ethyl-2-phenylacetate iodide [Compound 8] | 3.16 ± 0.52 µM | eliminated the activity | –
R-8-Pyridinium-n-octyl α-hydroxy-α-methyl-2-phenylacetate iodide [Compound 6] | > 30 µM | failed to restore the activity | –
R-8-Pyridinium-n-octyl α-methyl-2-phenylacetate iodide [Compound 3] | – | – | IC50 (IB-3 CF cells, read-out: IC50, inhibition of IL-8 secretion): 0.35 µM; stereoselectivity of action in favor of the (R)-isomer (IL-8 production, Compound 3 (R) versus its enantiomer Compound 5): > 70 fold
S,S-1.8-di((α-methyl 2-(4-[2-methylpropyl]phenyl acetoxy)-n-octane [Compound 22] | > 30 µM | eliminated the activity | –
S-8-(4-2-hydroxy-ethyl)pyridinium)-n-octyl α-methyl-2-(4-[2-methylpropyl]benzene)acetate bromide [Compound 20] | 18 ± 0.9 µM | – | –
S-8-(4-n-Prolpylpyridinium)-n-octyl α-methyl-2-(4-[2-methylpropyl]benzene)acetate bromide [Compound 19] | 3.3 ± 0.5 µM | – | –
S-8-Pyridinium-n-octyl 2-hydroxy-3-phenylpropionate iodide [Compound 13] | > 30 µM | no activity was evident | –
S-8-Pyridinium-n-octyl α-methoxy-2-phenylacetate iodide [Compound 9] | > 30 µM | failed to restore the activity | –
S-8-Pyridinium-n-octyl α-methyl-2-(4-[2-methylpropyllbenzeneacetate bromide [Compound 15] | 2.2 ± 0.8 µM | – | loss of potency: 6 fold
S-8-Pyridinium-n-octyl α-methyl-2-phenylacetate iodide [Compound 5] | > 25 µM | much less active | –
